The source of these data is patent publication US20260151398A1, “COMPOUNDS FOR REDUCING CHOLESTEROL AND TREATING LIVER AND KIDNEY DISEASE” (McMaster University, priority 2021, published 2026).

Assay [1] relates to cytosolic Ca^2+ levels. The assay is described as follows: Cytosolic Ca2+ in hepatocytes (Fura-2-AM). It is filed as cell-based, human. The note with it: immortalized HuH7 hepatocytes, listed as CF. The method, then: Intracellular Ca^2+ in Huh7 and HepG2 cells was measured using a high-affinity Ca^2+ indicator, Fura-2-AM (Thermofisher Scientific). ER Ca^2+ levels were assessed using the low-affinity Ca^2+ indicator, Mag-Fluo-4, and via transfection of cells with D1ER. The D1ER plasmid encodes an ER-resident calcium binding protein linked to a fluorescent protein and increases in fluorescence intensity upon Ca^2+ binding (7). […] Cells were then washed and incubated with Fura-2-AM (2 μM) or Mag-Fluo-4 (2 μM) for 45 minutes at 37° C. in HBSS containing 20 mM HEPES and 2% pluronic acid v/v (Thermofisher Scientific).
To test this hypothesis, cytosolic Ca^2+ levels in CF-treated cells were first examined using the high-affinity fluorescent Ca^2+ indicator, Fura-2-AM. […] The fluorescence intensity of cells treated with CF and control agents, TG and CDN, was assessed using a fluorescent spectrophotometer and visualized using a fluorescent microscope (FIG. 6 A). […] ER Ca^2+ content was also assessed indirectly with the high affinity Ca^2+ dye, fura-2-AM (FIG. 6 B).

The subject of assay [2] is HepG2 cells. The assay can be described thus: DiI-LDL uptake assay in HepG2 cells. It is filed as cell-based, human. As to the method: During the last 5 h of treatment (h 19 to 24) cells were exposed to DiI-LDL (10 μg/ml) and then washed with two changes of pre-warmed (37° C.) HBSS containing 20 mM HEPES prior to analysis.
The uptake and accumulation of DiI-LDL was then quantified using a fluorescent spectrophotometer (Molecular Devices). […] Live-cell staining of the LDLR was also performed in HepG2 cells exposed to DiI-LDL (FIG. 11 D).

The subject of assay [3] is Pcsk9+/+ and Pcsk9−/− mice. The note with it: CF 8 h. As to the method:
All animal studies were carried out in 8 h-fasted male wild-type, Pcsk9^−/− or Ampkβ1^−/− mice on the C57BL/6J background. CF (25-100 mg/kg-8 h) and CDN (50 mg/kg) treatments were administered via intraperitoneal injection unless specified otherwise. Primary mouse hepatocytes were isolated using a two-step process with EGTA ([…] in HEPES buffer, Sigma Aldrich) and collagenase (0.05% in HEPES buffer, Sigma Aldrich) in 12-week-old male mice on the C57BL/6J background. Cells were then washed, centrifuged, and plated following isolation in cell strainers. Hepatosure® 100-donor pooled primary human hepatocytes were purchased from Xenotech. Primary hepatocytes were regularly grown in William's E medium (Gibco, Thermo Fisher Scientific) containing 10% fetal bovine serum, 100 IU/ml penicillin, and 100 µg/ml streptomycin.

“Also recorded” adds a separate entry of the source.

As for `Cn1c(=O)c2c(ncn2C)n(C)c1=O` [caffeine, 1,3,7-Trimethylxanthine], the “cytosolic Ca^2+ levels” value in assay [1] is “significantly increased cytosolic Ca^2+ levels; also recorded: increases cytosolic Ca^2+ levels”. In addition, in assay [2] (HepG2, 24 h treatment, DiI-LDL 5 h), the “LDLc (DiI-LDL) uptake” value is reported as “increased LDLc uptake”. Besides, the “LDLc uptake in PCSK9 shRNA cells” value in assay [2] (HepG2 stably transfected with PCSK9 shRNA, CF 200 μM) is recorded as “failed to significantly increase LDLc uptake”. Further, the “hepatic and serum DiI fluorescence in Pcsk9−/− mice” value in assay [3] is on record as “failed to affect these parameters”.
